For one compound, LC50, LC95 and LC99 results are on record in ChEMBL document CHEMBL3045080, “Baseline susceptibility to chlorantraniliprole of Brazilian populations of Plutella xylostella” (2012).

What all share (assay type): functional
For assay [1], the system named is Plutella xylostella. Put plainly: Insecticidal activity against Plutella xylostella (diamondback moth) CG1 using topical method of compound application.
Assay [2] has as its system Plutella xylostella. Put plainly: Insecticidal activity against Plutella xylostella (diamondback moth) Brazilian field isolates.
Assay [3] deals with Plutella xylostella. Put plainly: Insecticidal activity against Plutella xylostella (diamondback moth) CG1 using leaf dip immersion method of compound application.
The subject of assay [4] is Plutella xylostella. Put plainly: Insecticidal activity against Plutella xylostella (diamondback moth) CG1 using potter tower method of compound application.

Take `CNC(=O)c1cc(Cl)cc(C)c1NC(=O)c1cc(Br)nn1-c1ncccc1Cl` [CHLORANTRANILIPROLE]: the LC50 in the assay with Plutella xylostella [1] is given as 1.422 mgAi/L; in the assay with Plutella xylostella [2], 0.025 mgAi/L; in the assay with Plutella xylostella [3], 0.02 mgAi/L; with Plutella xylostella [4], 0.018 mgAi/L. Further, the LC95 in the assay on Plutella xylostella [1] is listed as 35.13 mgAi/L; in the assay with Plutella xylostella [3] it was 0.046 mgAi/L; with Plutella xylostella [4], 0.073 mgAi/L. The LC99 with Plutella xylostella [1] is 132.65 mgAi/L; in the assay on Plutella xylostella [2] it was 0.212 mgAi/L; with Plutella xylostella [3] it was 0.066 mgAi/L; in the assay on Plutella xylostella [4], 0.13 mgAi/L.
